In patent publication US12583841B2, “Tetrahydropyrrolocyclic compound and application thereof” (Breakthrough Pharmaceuticals Inc., priority 2021, dated 2026):
Marks after values point to notes of the source that are not given here.

How the values were obtained:
Format in all cases: in vivo
SD rats = experiment: Effect on sleep in SD rats by electroencephalogram/electromyography telemetry; settings: SD rat EEG, Mean±SEM; for Sleep latency: blank vehicle 32 ± 3.1; for NREM sleep time within 7 h after administration: blank vehicle 102 ± 18; for Total awake time within 7 h after administration: blank vehicle 303 ± 20
Protocol: Test purpose: to evaluate the effect of test substance on sleep in SD rats by electroencephalogram/electromyography telemetry (EEG).
Test scheme: 36 male SD rats aged 5-6 weeks needed an adaptation period of 5-15 days after arriving at the facility, during which the experimental animals were placed in an alternating light and dark environment for 12 h for adaptation (light on: 19:00; light off: 07:00) to adjust the rhythm time, and the health of the animals was monitored every day. Animals needed to be surgically implanted with electroencephalogram electrode and electromyography electrode for later telemetry data collection. On the day of the operation experiment, the animals were anesthetized with Zoletil (i.p., 20 mg/kg) combined with xylazine (i.p., 8 mg/kg). After anesthesia, the animals were fixed by brain stereotaxic apparatus. After the head has hair clipped and was disinfected, the skin of the head was cut, and the four corners were clamped with hemostats to fully expose the skull. The periosteum was peeled off and wiped with dry absorbent cotton until the surface was clean. A hole was drilled according to the type of implanter, and an electrode was implanted and in contact with the dura mater. The electrode was fixed on the skull with dental cement. At the same time, the cement dripping on the tissue and skin was cleaned up. The 2 electromyography electrodes were respectively inserted into the neck muscles in parallel, and the two ends were fixed with sutures to prevent their ends from touching each other. The implanter was then placed under the skin, and the surgical wound was sutured and sterilized. After the operation, the rats were carefully placed in a clean recovery cage, lying on their sides to ensure a smooth airway. The rats were raised in a single cage and placed in a shielded recovery room, in which the light and dark automatically alternated for 12 h (light on: 19:00, light off: 07:00), the temperature was 20-26° C., and the relative humidity was 40-70%. After the operation, the animals were given nursing care for 3 days. The surgical incision was treated with cephradine powder locally, gentamicin at 4-8 mg/kg was subcutaneously administered, and meloxicam at 0.1 mL/rat was injected subcutaneously for 3 consecutive days. The experiment was carried out after 7-10 days of recovery and the animals were randomly divided into groups according to their weight the day before the experiment.
On the day of the experiment, the basic electroencephalogram and electromyography were recorded first, and then the administration began. During and after the administration, the electroencephalogram and electromyography were recorded continuously until 24 h after the administration. Raw data were collected by DSI system Ponemah software and analyzed by NeuroScore software. The experimental data were represented by the mean±standard error (Mean±SEM), and statistical analysis was performed using the one-way variance method. Compared with the blank vehicle group, P<0.05 indicated a significant difference, and represented as *; P<0.01 indicated a very significant difference, and represented as **; P<0.001 indicated an extremely significant difference, and represented as ***.

[1] = Drug concentration in brain tissue and plasma of SD rats; settings: male, Sprague-Dawley (SD), po, SD rat, p.o. 30 mg/kg
Protocol: 4 healthy SD rats aged 6-9 weeks were selected, and the […] given the test compound at 10 mg/kg by intragastric administration. 2 animals were randomly selected at 0.5 h and 2 h after administration, respectively. Plasma and brain tissue samples were collected, and LC-MS/MS method was used for quantitative analysis of all biological samples.
4 healthy male SD rats aged 6-9 weeks were selected and given the test compound by intragastric administration. 2 animals were randomly selected to be euthanized at 0.5 h and 2 h after administration, respectively. Plasma and brain tissue samples were collected, and LC-MS/MS method was used for quantitative analysis of all biological samples.

[2] = Pharmacokinetic parameters in Beagle dog plasma
Protocol: 4 healthy male Beagle dogs were selected and randomly divided into two groups, with 2 dogs in each group. One group was given the test compound at 1 mg/kg by intravenous injection, and the other group was given the test compound at 5 mg/kg by intragastric administration. Plasma samples were collected at 0.033, 0.083, 0.25, 0.5, 1.0, 2.0, 4.0, 6.0, 8.0, and 24 h after administration for the intravenous injection group and intragastric administration group, respectively. Quantitative analysis of all biological samples was carried out by LC-MS/MS method, and the WinNonlin™ Version 6.3 (Pharsight, Mountain View, CA) pharmacokinetic software was used to calculate the relevant pharmacokinetic parameters by the non-compartmental model linear logarithmic trapezoidal method. AUC0-last represents area under the plasma concentration-time curve from time zero to the last detectable concentration time point; p.o. represents oral; i.v. represents intravenous injection; T1/2 represents half-life; CL represents clearance rate; Vd represents apparent volume of distribution; Cmax represents peak concentration; Tmax represents time to peak; F % represents oral bioavailability.

[3] = Drug concentration in cerebrospinal fluid of Beagle dogs; settings: male, po, Beagle dog, p.o. 5 mg/kg
Protocol: 2 healthy male Beagle dogs were selected, and after intragastric administration of the test compound at 5 mg/kg, cerebrospinal fluid samples were taken at 0.5 h, 2 h and 6 h after the administration, respectively. Quantitative analysis of all biological samples was carried out by LC-MS/MS method, and the WinNonlin™ Version 6.3 (Pharsight, Mountain View, CA) pharmacokinetic software was used to calculate the relevant pharmacokinetic parameters by the non-compartmental model linear logarithmic trapezoidal method. AUC0-last represents area under the plasma concentration-time curve from time zero to the last detectable concentration time point; p.o. represents oral; i.v. represents intravenous injection; T1/2 represents half-life; CL represents clearance rate; Vd represents apparent volume of distribution; Cmax represents peak concentration; Tmax represents time to peak; F % represents oral bioavailability.

For `COc1ccc(-n2nccn2)c(C(=O)N2C(c3nc4ccc(OC)cc4[nH]3)CC3CC32)c1` (centres unmarked) [Compound 8], the Sleep latency (SD rats; 5 mg/kg) was 27 ± 8.1 min, the “NREM sleep time within 7 h after administration” value (“NREM sleep time within 7 h” for short) (SD rats; 5 mg/kg) was 129 ± 17 min and the “Total awake time within 7 h after administration” value (“Total awake time within 7 h” for short) (SD rats; 5 mg/kg) was 274 ± 19 min. The Sleep latency (SD rats; 10 mg/kg) was 15 ± 2.9** min, the “NREM sleep time within 7 h” value (SD rats; 10 mg/kg) was 144 ± 16 min and the “Total awake time within 7 h” value (SD rats; 10 mg/kg) was 250 ± 21 min. For the same compound, the Sleep latency (SD rats; 30 mg/kg) was 7 ± 1.3*** min, the “NREM sleep time within 7 h” value (SD rats; 30 mg/kg) was 171 ± 11** min and the “Total awake time within 7 h” value (SD rats; 30 mg/kg) was 228 ± 12* min. It also gave a Kp at 0.5 h ([1]; brain / plasma, 0.5 h, read-out: Brain-to-blood ratio) of 0.25, a Kp at 2 h ([1]; brain / plasma, 2 h, read-out: Brain-to-blood ratio) of 0.19 and a concentration at 0.5 h ([1]; brain, 0.5 h, read-out: Drug concentration in brain) of 1.39 µM. For the same compound, the concentration at 2 h ([1]; brain, 2 h, read-out: Drug concentration in brain) was 0.212 µM, the concentration at 0.5 h ([1]; plasma, 0.5 h, read-out: Drug concentration in plasma) was 5.6 µM and the concentration at 2 h ([1]; plasma, 2 h, read-out: Drug concentration in plasma) was 1.1 µM. For the same compound, the AUC(0-t) ([2]; male, plasma, iv, i.v. 1 mg/kg) was 15.3 µM·h, the clearance ([2]; male, plasma, iv, i.v. 1 mg/kg) was 0.154 L/h/kg and the half-life ([2]; male, plasma, iv, i.v. 1 mg/kg) was 2.79 h. The Vd ([2]; male, plasma, iv, i.v. 1 mg/kg, read-out: Vdss) was 0.41 L/kg, the AUC(0-t) ([2]; male, plasma, po, p.o. 5 mg/kg) was 26.2 µM·h and the Cmax ([2]; male, plasma, po, p.o. 5 mg/kg) was 6.18 µM. For the same compound, the Tmax ([2]; male, plasma, po, p.o. 5 mg/kg) was 1 h, the F ([2]; p.o. 5 mg/kg vs i.v. 1 mg/kg) was 34% and the concentration at 0.5 h ([3]; 0.5 h) was 1.16 µM. It also gave a concentration at 2 h ([3]; 2 h) of 0.773 µM and a concentration at 6 h ([3]; 6 h) of 0.11 µM.
